Experimental data from PMC6662706, “Short amylin receptor antagonist peptides improve memory deficits in Alzheimer’s disease mouse model” (Scientific Reports, 2019).
No end group written: not given here.

Columns and labels:
Format in all cases: in vivo, mouse
5XFAD mice = assay: Morris Water Maze and probe test, 5XFAD and wild-type mice; conditions: for memory task in age-matched wild-type control mice: systemic administration, ip three times a week for 5 weeks
Protocol: The determination of injection amount of R5 (200 µg/kg) was based on achieving equimolar concentrations as the full length peptide, cAC253[21] and prior studies that used pramlintide injections[22],[23]. The normal mouse circulated endogenous amylin level is 0.7 ± 0.4 pmol/L in plasma[32] and based upon our in vitro data (Fig. 1E) unlikely to perturb the function of peptides in vivo at these concentrations.
For in vivo studies, 5XFAD mouse breeding stocks were obtained from the Jackson Laboratory (JAX #006554). Intraperitoneal injection (ip) administration of fragment R5 and cAC253 was carried out in 5XFAD mice and wild-type littermate control mice (both male and female). These mice were equally and randomly distributed into 6 groups (n = 10 for each group), and received either normal saline (NS), cAC253 or R5 fragment (200 µg/kg) i.p. injections 3 times a week starting at 6 months of age for 5 weeks.
The Morris Water Maze (MWM) and probe test were carried out for behavioral testing. The mice were trained for 3 days (4 trials per day) to find a submerged platform (target quadrant, TQ). The trial ended when a mouse found and climbed onto the platform within 120s. Mice were tested with inter-trial interval of 50 min. Memory was evaluated in probe trial, administered on day 4 as the first trial of the day. During probe trial, the platform was removed from the pool. Memory for the platform location was expressed as the percent of time spent in TQ.
For in vivo experiments, intraperitoneal injection (ip) administration of fragment R5 and cAC253 was carried out in 6 month old transgenic 5XFAD mice and wild-type littermate control mice (both male and female) obtained from Dr. David Westaway (University of Alberta). These mice were equally and randomly distributed into 6 groups and 10 mice assigned for each group, Tg-NS, Tg-cAC253, Tg-R5, Wt-NS, Wt-cAC253, Wt-R5. Randomized double blind control experiment was carried out for the whole in vivo experiment, i.e. the individual administering ip injections was blinded to the identity of the drug, and the individual testing behavior was blind to the treatment being administered. […]
The MWM apparatus consisted of 2-m circular blue plastic pool filled with water (24–25°C), which was rendered opaque by the addition of non-toxic white paint. […] The behavior of a mouse was recorded by a video camera connected to a video tracking system (HVS Image 2100, HVS Image, Buckingham, UK).
The pool was surrounded by a white curtain, and a mouse was released facing the wall at points (N, E, S, W) which were chosen semi-randomly. […] Memory was evaluated in probe trial, administered on day 4 as the first trial of the day. […] Memory for the platform location was expressed as the percent of time spent in TQ.

[1] = Ex vivo NIR fluorescence brain imaging after ip injection (brain penetration); conditions: wild-type mice, 0, 0.6, 2, 10, 20 mg/kg single ip dose, 2 h, n = 3 per dose
Description: Blood brain barrier (BBB) penetration can limit the potential of long sequence peptides as therapeutic agents in central nervous system (CNS). Previously, we have reported that a cyclized form of AC253 peptide and to a lesser degree its linear form can both penetrate the BBB at therapeutically relevant levels, and are localized to the hippocampus and cortex, regions relevant to memory and learning processes. Therefore, we examined the ability of Cy5.5 labeled peptide fragments (R5, and R14) to penetrate BBB in wild-type mice using NIR fluorescence ex vivo brain imaging. Brain fluorescence resulting from either R5 or R14 was assessed against full length AC253 2 h after a single intraperitoneal (ip) injection of peptides. […] Fluorescence signals were distributed throughout the cortex, but particularly strong within the hippocampal regions, where a very high density of amylin receptor expression has been reported. […]
In vivo brain penetration and pharmacokinetics of the peptides were determined in 6-month-old male or female wild-type (C57BL/6 background) and heterozygous CTR mice (het-CTR). […]
For ex vivo imaging experiments and peptide brain uptake, we used age matched 6-month-old wild-type littermate (C57BL/6 background) mice. […] Region of interest was drawn around the brain region and analyzed using the Kodak ID 3.6 software and the mean fluorescence intensity was recorded. […]

[2] = Brain uptake of R5 compared with davalintide, wild-type and het CTR mice; conditions: mouse, not told, ip
Protocol: For peptide R5 brain uptake in comparison to Davlintide, wild-type littermate (C57BL/6 background) mice and heterozygous CTR knockdown mice (50% CTR expression level compared to wild type control mice and presumably with 50% AMY receptor expression level) was used (n=5 in each group). Mouse brains were extracted after 2h from a single injection and fluorescence in brains was quantified as mentioned above.
Supplementary Figure S3: The comparison of brain permeability for R5 and Davalintide.

Substance	memory task in age-matched wild-type control mice (5XFAD mice)	accumulation in the brain at increasing dose [1]	brain permeability, R5 versus davalintide [2]	Morris Water Maze escape latencies, 5XFAD mice versus normal saline (5XFAD mice; 200 µg/kg ip three times a week for 5 weeks from 6 months of age, n = 9 mice per group)	Probe trial, quadrant preference, 5XFAD mice (5XFAD mice; 200 µg/kg ip three times a week for 5 weeks, n = 9)
LGRLSQELHRLQTYPRTNTGSNTY-NH2 (C-terminus assumed) [AC253, reference compound]	no alterations in the memory task	–	–	–	–
SQELHRLQTYPR-NH2 [R5]	no alterations in the memory task	dose-dependent	greater brain permeability	marked improvement in escape latencies	preference for the target quadrant
